We go through 46 molecules from patent publication US8138194B2, “Fused bicyclic pyrimidine compounds as aurora kinase inhibitors” (National Health Research Institutes, priority 2008, dated 2012).

This test concerns the target T1, GST-tAurora A (123-401aa) fusion protein (Homo sapiens, UniProt O14965).
T1 construct: GST-tAurora A (123-401aa) fusion protein; made in house; host or cells: Sf9 insect cells (baculovirus, pBacPAK8)
T1 sequence (O14965 123-401): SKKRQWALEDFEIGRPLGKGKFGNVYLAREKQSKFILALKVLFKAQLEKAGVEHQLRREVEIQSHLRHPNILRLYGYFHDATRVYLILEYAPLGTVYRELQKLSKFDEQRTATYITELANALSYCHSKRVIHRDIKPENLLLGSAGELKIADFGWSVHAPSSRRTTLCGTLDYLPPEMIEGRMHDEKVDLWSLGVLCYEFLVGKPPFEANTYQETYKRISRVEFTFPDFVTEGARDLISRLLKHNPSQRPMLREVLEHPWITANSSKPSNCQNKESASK
Kind of test: Aurora Kinase A luminescent kinase assay. The class given is biochemical. To be noted: IC50 (concentration of a test compound at which activity of 50% of Aurora A is inhibited). The protocol: The Aurora A catalytic domain with an N-terminal GST tag was constructed in pBacPAK8 plasmid and expressed in sf9 cells. […] To concentrate GST-tAurora A, buffer was replaced with Tris buffer (100 mM Tris (pH 7.5), 300 mM NaCl, 1 mM EDTA, 4 mM DTT) using Amicon ultra-15 (MWCO:30K, Millipore) to 2.4 mg/ml. After the addition of equal volume of glycerol and 0.04% Triton X-100, the proteins were stored aliquoted at −80° C.
Briefly, a test compound, enzyme, substrate-tetra(LRRWSLG), DTT and ATP were dissolved in Aur buffer (50 mM Tris-HCl pH 7.4, 10 mM NaCl, 10 mM MgCl2, and 100 μg/ml BSA) individually before the assay. […] 5 μM ATP (5 μl), 1 mM DTT (5 μl) and 0.1 mM tetra(LRRWSLG) peptide substrate (5 μl) were added into the reactions of test compounds and GST-tAurora A. The reactions were incubated at 37° C. for 90 min. 50 μl of Kinase-Glo Plus Reagent (V3771, Promega) was added into the reactions, followed by the incubation at 25° C. for 20 min.

Where “and” joins values, the source holds several entries; their conditions need not be identical. Equal values may be shown once. A value given as a limit tells only on which side of the number the result lay.

Molecule `Nc1ccc(CNc2ncnc3oc(-c4ccccc4)c(-c4ccccc4)c23)cc1` [Compound 1, N-(4-aminobenzyl)-5,6-diphenylfuro[2,3-d]pyrimidin-4-amine] displayed an IC50 of under 1 µM.

`Nc1ccc(CCNc2ncnc3oc(-c4ccccc4)c(-c4ccccc4)c23)cc1` [Compound 3, N-(4-aminophenethyl)-5,6-diphenylfuro[2,3-d]pyrimidin-4-amine]: the IC50 was under 1 µM. `Oc1ccc(CCNc2ncnc3oc(-c4ccccc4)c(-c4ccccc4)c23)cc1` [Compound 4] gave an IC50 of under 1 µM. Regarding `O=C(Nc1ccc(CCNc2ncnc3oc(-c4ccccc4)c(-c4ccccc4)c23)cc1)c1ccccc1` [Compound 5], the IC50 is 0.045 to 0.4 µM and < 1 µM. In the case of `NC(=O)Nc1ccc(CCNc2ncnc3oc(-c4ccccc4)c(-c4ccccc4)c23)cc1` [Compound 7], the IC50 is under 1 µM. On to `CNC(=O)Nc1ccc(CCNc2ncnc3oc(-c4ccccc4)c(-c4ccccc4)c23)cc1` [Compound 8], for which the IC50 was 0.045 to 0.4 µM and < 1 µM.

As to `CN(C)C(=O)Nc1ccc(CCNc2ncnc3oc(-c4ccccc4)c(-c4ccccc4)c23)cc1` [Compound 9], the IC50 was 0.045 to 0.4 µM and < 1 µM. For `O=C(NCc1ccccc1)Nc1ccc(CCNc2ncnc3oc(-c4ccccc4)c(-c4ccccc4)c23)cc1` [Compound 10], the IC50 is 0.045 to 0.4 µM and < 1 µM. Turning to `S=C(Nc1ccccc1)Nc1ccc(CCNc2ncnc3oc(-c4ccccc4)c(-c4ccccc4)c23)cc1` [Compound 13], the IC50 is 0.045 to 0.4 µM and < 1 µM. Regarding `O=C(Nc1ccc(CCNc2ncnc3oc(-c4ccccc4)c(-c4ccccc4)c23)cc1)Nc1cccc(Cl)c1` [Compound 15], the IC50 was 0.045 to 0.4 µM and < 1 µM. Then `O=C(Nc1ccc(CCNc2ncnc3oc(-c4ccccc4)c(-c4ccccc4)c23)cc1)Nc1cccc(Br)c1` [Compound 16], with under 1 µM; and `O=C(Nc1ccc(CCNc2ncnc3oc(-c4ccccc4)c(-c4ccccc4)c23)cc1)Oc1ccccc1` [Compound 17], with 0.045 to 0.4 µM and < 1 µM; and `O=C(Nc1ccccc1)Oc1ccc(CCNc2ncnc3oc(-c4ccccc4)c(-c4ccccc4)c23)cc1` [Compound 18], with 0.045 to 0.4 µM and < 1 µM. On to `O=C(NCCCl)Nc1ccc(CCNc2ncnc3oc(-c4ccccc4)c(-c4ccccc4)c23)cc1` [Compound 19], for which the IC50 is 0.045 to 0.4 µM and < 1 µM. Regarding `O=C(NCCN1CCOCC1)Nc1ccc(CCNc2ncnc3oc(-c4ccccc4)c(-c4ccccc4)c23)cc1` [Compound 20], the IC50 is 0.045 to 0.4 µM and < 1 µM. The value for `O=C(Nc1ccc(CCNc2ncnc3oc(-c4ccccc4)c(-c4ccccc4)c23)cc1)N1CCN(c2ccc(F)cc2)CC1` [Compound 22] was under 1 µM; that for `Nc1ccc(CCOc2ncnc3oc(-c4ccccc4)c(-c4ccccc4)c23)cc1` [Compound 26] was under 1 µM. On to `O=C(Nc1ccccc1)Nc1ccc(CCOc2ncnc3oc(-c4ccccc4)c(-c4ccccc4)c23)cc1` [Compound 27], for which the IC50 is 0.045 to 0.4 µM and < 1 µM. Turning to `Cc1cccc(NC(=O)Nc2ccc(CCNc3ncnc4oc(-c5ccccc5)c(-c5ccccc5)c34)cc2)c1` [Compound 28], the IC50 is 0.045 to 0.4 µM and < 1 µM. Consider `O=C(Nc1ccc(CCNc2ncnc3oc(-c4ccccc4)c(-c4ccccc4)c23)cc1)Nc1cccc(C(F)(F)F)c1` [Compound 29], for which the IC50 is 0.045 to 0.4 µM and < 1 µM.

As to `N#Cc1cccc(NC(=O)Nc2ccc(CCNc3ncnc4oc(-c5ccccc5)c(-c5ccccc5)c34)cc2)c1` [Compound 30], the IC50 is 0.045 to 0.4 µM and < 1 µM. Consider `CC(=O)c1cccc(NC(=O)Nc2ccc(CCNc3ncnc4oc(-c5ccccc5)c(-c5ccccc5)c34)cc2)c1` [Compound 31], for which the IC50 is 0.045 to 0.4 µM and < 1 µM. Then `O=C(Nc1ccc(CCNc2ncnc3oc(-c4ccccc4)c(-c4ccccc4)c23)cc1)Nc1cccc([N+](=O)[O-])c1` [Compound 32], with 0.045 to 0.4 µM and < 1 µM. For `O=C(Nc1ccc(CCNc2ncnc3oc(-c4ccccc4)c(-c4ccccc4)c23)cc1)N1CCN(CCO)CC1` [Compound 34], the IC50 is under 1 µM. With `COc1cccc(NC(=O)Nc2ccc(CCNc3ncnc4oc(-c5ccccc5)c(-c5ccccc5)c34)cc2)c1` [Compound 40], the IC50 is under 1 µM. For the molecule `O=C(Cc1ccccc1)Nc1ccc(CCNc2ncnc3oc(-c4ccccc4)c(-c4ccccc4)c23)cc1` [Compound 41], the IC50 was 0.045 to 0.4 µM and < 1 µM. Take `O=C(Nc1ccc(CCNc2ncnc3oc(-c4ccccc4)c(-c4ccccc4)c23)cc1)NN1CCCCC1` [Compound 45]: the IC50 was < 1 µM and 0.045 to 0.4 µM. Then `COC(=O)C(Cc1ccc(NC(=O)Nc2ccccc2)cc1)Nc1ncnc2oc(-c3ccccc3)c(-c3ccccc3)c12` (stereo not shown) [Compound 52], with < 1 µM and 0.045 to 0.4 µM; and `COc1ccc(-c2c(-c3ccccc3)oc3ncnc(NCCc4ccc(NC(=O)Nc5ccccc5)cc4)c23)cc1` [Compound 56], with 0.045 to 0.4 µM and < 1 µM; and `COc1cccc(-c2c(-c3ccccc3)oc3ncnc(NCCc4ccc(NC(=O)Nc5ccccc5)cc4)c23)c1` [Compound 59], with 0.045 to 0.4 µM and < 1 µM. On to `O=C(Nc1ccc(CCNc2ncnc3oc(-c4ccccc4)c(-c4ccccc4)c23)cc1)Nc1ccc(F)c(F)c1` [Compound 62], for which the IC50 was 0.045 to 0.4 µM and < 1 µM.

Consider `O=C(Nc1ccc(CCNc2ncnc3oc(-c4ccccc4)c(-c4ccccc4)c23)cc1)Nc1cc(F)cc(F)c1` [Compound 63], for which the IC50 was 0.045 to 0.4 µM and < 1 µM. In the case of `CC(=O)Nc1cccc(NC(=O)Nc2ccc(CCNc3ncnc4oc(-c5ccccc5)c(-c5ccccc5)c34)cc2)c1` [Compound 64], the IC50 was under 1 µM. Regarding `COc1ccc(-c2oc3ncnc(NCCc4ccc(NC(=O)Nc5ccccc5)cc4)c3c2-c2ccc(O)cc2)cc1` [Compound 66], the IC50 was 0.045 to 0.4 µM and < 1 µM. As to `CCCNC(=O)Nc1ccc(CCNc2ncnc3oc(-c4ccccc4)c(-c4ccccc4)c23)cc1` [Compound 67], the IC50 is 0.045 to 0.4 µM and < 1 µM. For `CCCCCNC(=O)Nc1ccc(CCNc2ncnc3oc(-c4ccccc4)c(-c4ccccc4)c23)cc1` [Compound 68], the IC50 is under 1 µM. As for `CCCCCCNC(=O)Nc1ccc(CCNc2ncnc3oc(-c4ccccc4)c(-c4ccccc4)c23)cc1` [Compound 69], the IC50 was under 1 µM.

Consider `O=C(Nc1ccc(CCNc2ncnc3oc(-c4ccccc4)c(-c4ccccc4)c23)cc1)NC1CCCC1` [Compound 70], for which the IC50 is 0.045 to 0.4 µM and < 1 µM. `O=C(Nc1ccc(CCNc2ncnc3oc(-c4ccccc4)c(-c4ccccc4)c23)cc1)NC1CCCCC1` [Compound 71]: the 50% inhibitory concentration (IC50) is 0.045 to 0.4 µM and < 1 µM.

For `COc1ccc(NC(=O)Nc2ccc(CCNc3ncnc4oc(-c5ccccc5)c(-c5ccccc5)c34)cc2)cc1` [Compound 72], the half-inhibitory concentration (IC50) was under 1 µM. With `O=C(Nc1ccc(CCNc2ncnc3oc(-c4ccccc4)c(-c4ccccc4)c23)cc1)Nc1ccc2c(c1)OCO2` [Compound 73], the IC50 was 0.045 to 0.4 µM and < 1 µM. Turning to `S=C(Nc1ccc(CCNc2ncnc3oc(-c4ccccc4)c(-c4ccccc4)c23)cc1)Oc1ccccc1` [Compound 74], the IC50 was under 1 µM. For the molecule `N#C/N=C(\Nc1ccccc1)Nc1ccc(CCNc2ncnc3oc(-c4ccccc4)c(-c4ccccc4)c23)cc1` [Compound 75], the 50% inhibitory concentration (IC50) was under 1 µM. The value for `O=Cc1ccc(-c2c(-c3ccccc3)oc3ncnc(NCCc4ccc(NC(=O)Nc5ccccc5)cc4)c23)o1` [Compound 76] was 0.045 to 0.4 µM and < 1 µM. The value for `O=C(Nc1ccccc1)Nc1ccc(CCNc2ncnc3oc(-c4ccccc4)c(-c4ccc([N+](=O)[O-])cc4)c23)cc1` [Compound 77] was 0.045 to 0.4 µM and < 1 µM. Turning to `O=C(Nc1ccccc1)Nc1ccc(CCNc2ncnc3oc(-c4ccccc4)c(-c4cccc(O)c4)c23)cc1` [Compound 78], the IC50 was 0.045 to 0.4 µM and < 1 µM.

The IC50 is the point on the concentration scale where inhibition reaches its midpoint. Low readings indicate higher potency, high ones lower potency.
